{"source": "patent US9745357B2", "about": "“Peptides used for treating cancers and, in particular, chronic lymphoid leukaemia” (Centre National de la Recherche Scientifique, priority 2009, dated 2017)", "key": {"[1]": {"system": "cap-dependent translation (eIF4E-dependent)", "test": "Effect of the peptides on translation of capped luciferase mRNA in rabbit reticulocyte lysate", "assay_type": "biochemical", "conditions": "50 μM peptide, compared with DMSO = 100%; FIG. 2", "description": "The peptides having the IRS motif and the sequences of 4EBPlike type (A1WT, BPSgWT, and BP2WT) or the mutant sequences of 4EPBlike type (A1YALA, BPSgYALA, BP2YALA) are incubated in rabbit reticulocyte lysate containing capped mRNAs encoding luciferase, an enzyme of which the activity can be easily assayed. The translational activity is directly proportional to the activity of the luciferase produced. The translational activity in the presence of peptide is compared with that obtained during the addition of an equivalent volume of DMSO, considered to be 100%.\nThe peptides were produced, purified by HPLC (purity>95%), and freeze-dried by Thermofisher Scientific. The peptides were then dissolved at 10 mM in DMSO.\nThe capped mRNAs encoding Renilla luciferase (Luc R) were produced by the T7 Message Machine Kit system (Ambion) from the pGb-Eg2-410Δ2-hxG-A65 plasmid linearized with EcoRV (Legagneux V, Omilli F, Osborne HB (1995) Substrate-specific regulation of RNA deadenylation in Xenopus embryo and activated egg extracts. RNA 1: 1001-1008).\nThe Luc R mRNAs were translated for one hour at 30° C. in rabbit reticulocyte lysate (Flexi Rabbit Reticulocyte Lysate System, Promega) in the presence of 50 μM of peptide. The luciferase activity was determined using the Renilla luciferase assay (Promega) on the Tristar LB941 luminometer (Berthold).\nA capped mRNA (having a cap at the 5′ end) encoding luciferase, a protein which can be easily assayed by measuring its activity, was translated in the presence of these various peptides in rabbit reticulocyte lysate (FIG. 2). The luciferase activity measured is directly proportional to the amount of luciferase protein produced and therefore to the cap-dependent translational activity. Since the peptides are dissolved in DMSO, it was important to test the effect of DMSO on the translation. […] The translational activity in the presence of peptide was compared with that obtained when an equal volume of DMSO is added, considered to be equal to 100%."}, "[2]": {"system": "B-cell prolymphocytic leukemia cells", "assay_type": "cell-based, human", "conditions": "24 h", "description": "(§1) FIG. 7: Activity of the A1WT peptide on cells of lymphocytic, lymphoid, gastric, colonic or renal origin The cells are prepared and placed in culture (see Materials and Methods) and then incubated for 4 H with the A1WT or A1 YALA peptide. The percentage cell survival corresponds to the percentage of cells labeled neither with annexin nor with propidium iodide, evaluated by flow cytometry. The names of the pathological conditions from which the patients from whom the samples are taken are suffering are indicated under the figure. The control T (L.T.) and B (L.B.) lymphocytes are taken from patients suffering from a disease not related to a lymphocytic pathological condition (hemochromatosis).\n(§2) The cells were cultured in a culture medium composed either of RPMI 1640 (B lymphocytes) or of DMEM (COS7, HCT116, HGT1, 293, HeLa) containing 10% of FCS (fetal calf serum, 1% of penicillin-streptomycin and 1% of glutamine, Gibco BRL). The cells are distributed in a 24-well plate and cultured at 37° C. in a humid atmosphere under 5% CO2.\n(§3) 400 μl of cell suspension (1×10^6 cells/ml) per well were treated for 4 h or 24 h with various concentrations of peptides. The test for activity of the peptides in the presence of emetine (FIG. 6) was carried out by preincubating the cells with 100 μM of emetine for one hour before the addition of peptide.\n(§4) After the cells have been washed with PBS, they were analyzed using the Annexin V-FITC IP system according to the supplier's recommendations (Beckman Coulter).\n(§5) The cells of lymphoid origin all originated from samples taken from patients suffering from various pathological conditions classified according to the seat of the tumor proliferation. This proliferation takes place either in the bone marrow, for CLL, B-cell prolymphocytic leukemia and T-cell acute lymphoblastic leukemia (T-ALL); or in the lymph nodes for mantle cell lymphoma and marginal zone lymphoma. A classification can also be carried out according to the cell type affected: B lymphocytes (CLL, B-cell prolymphocytic leukemia, mantle cell lymphoma and marginal zone lymphoma) or T lymphocytes (T-ALL)."}, "[3]": {"system": "T lymphocytes from a patient suffering from T-cell acute lymphoblastic leukemia (T-ALL)", "assay_type": "cell-based, human", "conditions": "FIG. 7, 4 H incubation", "description": "as §1, §2, §3, §4, §5"}, "[4]": {"system": "mantle cell lymphoma cells", "assay_type": "cell-based, human", "conditions": "4 h, 40 μM", "description": "as §1, §2, §3, §4, §5"}, "[5]": {"system": "marginal zone lymphoma (MZL) cells", "assay_type": "cell-based, human", "conditions": "4 h, 40 μM", "description": "as §1, §2, §3, §4, §5"}, "[6]": {"system": "HeLa cells (cervical cancer)", "test": "Cell survival of HeLa cells, Syto 13/propidium iodide fluorescence microscopy", "assay_type": "cell-based", "conditions": "one hour incubation, various concentrations; FIG. 10", "description": "(§6) The cells cultured in glass-bottomed multiwell plates are incubated for one hour with the A1WT or A1 YALA peptide at the concentrations indicated on the figure. The percentage cell survival is obtained by calculating the ratio between the cells stained with Syto 13 and those stained with propidium iodide (see Materials and Methods).\n(§7) The analyses were carried out on a Zeiss Observer Z1 epifluorescence microscope. The cells are cultured in a glass-bottomed multiwell plate, propidium iodide and Syto13 (Invitrogen) are added to the medium at a concentration of 1 mg/ml and 5 μM, respectively. The Syto 13 binds to the DNA in the nuclei of the cells which then emit a green fluorescence. When the membrane permeability is modified during the cell death process, the propidium iodide penetrates the cell and causes the appearance of a red fluorescence when it binds to the DNA of the cell nuclei. The ratio between the number of nuclei emitting a green fluorescence and the number of nuclei emitting a red fluorescence represents the fraction of live cells expressed as percentage cell survival in the figures."}, "[7]": {"system": "293 cells (human embryo kidney cells transformed with adenovirus 5)", "test": "Cell survival of 293 cells, Syto 13/propidium iodide fluorescence microscopy", "assay_type": "cell-based", "conditions": "one hour incubation, various concentrations; FIG. 10", "description": "as §6, §7"}}, "note": "No end group written: not given here."}
{"sequence": "RRKYGRDFLLRFRYIRS [A1 WT IRS, RRKYGRDFLLRFRYIRS]", "values": [{"measurement": "inhibition of translation (luciferase activity)", "setting": "[1]", "result": "more substantially inhibits the translation"}, {"measurement": "cell survival", "setting": "[2]", "result": 20, "unit": "%"}, {"measurement": "effect on cell survival", "setting": "[3]", "result": "as great as for the CLL cells"}, {"measurement": "survival rate", "setting": "[4]", "result": "approximately 30%"}, {"measurement": "survival rate", "setting": "[5]", "result": "approximately 30%"}, {"measurement": "effect on cell survival", "setting": "[6]", "result": "high sensitivity"}, {"measurement": "effect on cell survival", "setting": "[7]", "result": "dose-dependent effect"}]}
